Source: patent publication US20260034146A1, “NEUROACTIVE 19-ALKOXY-17-S[…], PRODRUGS THEREOF, AND METHODS OF TREATMENT USING SAME” (priority 2012, published 2026)

Columns and labels:
Tadpole = Tadpole loss of righting reflex (LRR) and loss of swimming reflex (LSR); type: in vivo; settings: N=10 or more animals at each of five or more concentrations, ± SEM; for Tadpole LRR EC50 (μM): loss of righting reflex; for Tadpole LSR EC50 (μM): loss of swimming reflex
Method: Table 3 discloses the anesthetic effects of the compounds of the present disclosure. In particular, the anesthetic effect of the compounds of the present disclosure on Loss of Righting Reflex (LRR) and Loss of Swimming Reflex (LSR).
Methods used are known in the art (see Jiang, X., et al.). Error limits are calculated as standard error of the mean (N=10 or more animals at each of five or more different concentrations).

[1] = molecular target: rat α1β2γ2L type GABAA receptors expressed in Xenopus laevis oocytes (Rattus norvegicus (Rat), UniProt P62813+P63138, INS375LLRMFSFK); assay: Oocyte electrophysiology: potentiation of chloride currents mediated by 2 μM GABA, and direct gating; type: cell-based; settings: ± SEM; for oocyte electrophysiology, ratio of currents in presence/absence of compound, 0.1 μM: 0.1 μM compound; for oocyte electrophysiology, ratio of currents in presence/absence of compound, 0.1 μM / oocyte electrophysiology, ratio of currents in presence/absence of compound, 1 μM / oocyte electrophysiology, ratio of currents in presence/absence of compound, 10 μM: 2 μM GABA control, N≥4 oocytes; for oocyte electrophysiology, ratio of currents in presence/absence of compound, 1 μM: 1 μM compound; for oocyte electrophysiology, ratio of currents in presence/absence of compound, 10 μM: 10 μM compound; for (gating) 10 μM, ratio of compound only current/2 μM GABA current: direct current gated by 10 μM compound in the absence of GABA, N≥4
Method: The compounds of the present disclosure were evaluated for the ability to potentiate chloride currents mediated by 2 μM GABA at rat α1β2γ2L type GABAA receptors expressed in Xenopus laevis oocytes and the results are shown in Table 2.
The GABA concentration used for the control response was 2 μM. Each compound was evaluated on at least four different oocytes at the concentrations indicated, and the results reported are the ratio of currents measured in the presence/absence of added compound. Gating represents direct current gated by 10 μM compound in the absence of GABA, and this current is reported as the ratio of compound only current/2 μM GABA current. Error limits are calculated as standard error of the mean (N≥4). Methods used are known in the art (see Jiang, X., et al.).

[2] = molecular target: picrotoxin binding site on GABAA receptors; assay: [35S]-TBPS displacement (inhibition of [35S]-TBPS binding); settings: duplicate experiments performed in triplicate; ± standard error of the mean
Method: The IC50 values for non-competitive displacers of [^35S]-TBPS from the picrotoxin binding site on GABAA receptors are reported in Table 1.
^aResults presented are from duplicate experiments performed in triplicate. Error limits are calculated as standard error of the mean. Methods used are known in the art (see Jiang, X., et al., Neurosteroid analogues. 9. Conformationally constrained pregnanes: structure-activity studies of 13,24-cyclo-18,21-dinorcholane analogues of the GABA modulatory and anesthetic steroids (3α,5α)- and […]. J. Med. Chem., 46: 5334-48 (2003)—the contents of which are hereby incorporated by reference in their entirety).

male Sprague Dawley rats = assay: Rat loss of righting reflex (LRR), intravenous bolus; type: in vivo
Method: The plasma pharmacokinetics and a qualitative assessment of sedation were obtained in male Sprague Dawley rats according to the following procedure. Rats were dosed by intravenous bolus dose (60 seconds) via the foot dorsal vein at doses ranging from 5 to 15 mg/kg in an appropriate vehicle. In order to assess sedation, rats were gently restrained by hand to a lateral position for dose administration. […] If the animal was unable to return to an upright position, the time was recorded as the onset of loss of righting reflex (LRR). […] Sluggish or incomplete righting twice consecutively within a 30 second interval qualifies as a loss of righting reflex. After onset of LRR, animals were assessed every 5 minutes in the same manner. Recovery of righting reflex is defined as the ability of a rat to right itself completely within 20 seconds of being placed in dorsal recumbency. The duration of LRR is defined as the time interval between LRR and the return of righting reflex.

male beagle dogs = assay: Dog duration of lateral recumbence, intravenous bolus; type: in vivo; settings: dog dose 5 mg/kg
Method: The plasma pharmacokinetics and a qualitative assessment of sedation were obtained in male beagle dogs according to the following procedure. Dogs were dosed by intravenous bolus dose (60 seconds) via the cephalic vein at 5 mg/kg dose in an appropriate vehicle. In order to assess sedation, dogs were gently restrained for dose administration. If decreased muscle tone, limb weakness, or head drop was observed during dose administration, onset of lateral recumbence was recorded. […] Sluggish or incomplete righting to the sternal position qualifies as lateral recumbence. After onset of lateral recumbence, animals were assessed every 5 minutes in the same manner. The duration of lateral recumbence was recorded as the time interval between onset of lateral recumbence and the return to sternal position.

Row | Compound | Tadpole LRR EC50 (μM) (Tadpole) | Tadpole LSR EC50 (μM) (Tadpole) | oocyte electrophysiology, ratio of currents in presence/absence of compound, 0.1 μM [1] | oocyte electrophysiology, ratio of currents in presence/absence of compound, 1 μM [1] | oocyte electrophysiology, ratio of currents in presence/absence of compound, 10 μM [1] | (gating) 10 μM, ratio of compound only current/2 μM GABA current [1] | IC50 [2] [nM] | Duration of Rat LRR (male Sprague Dawley rats; rat dose 5 mg/kg) | Duration of Dog Lateral Recumbence (male beagle dogs) | Duration of Rat LRR (male Sprague Dawley rats; rat dose 15 mg/kg)
1 | COC[C@]12CC[C@H](O)CC1=CC[C@@H]1[C@@H]2CC[C@]2(C)[C@@H](OC)CC[C@@H]12 [26, MQ-100, (3β,17β)-17,19-Dimethoxyandrost-5-en-3-ol] | None | None | 0.83 ± 0.03 | 0.76 ± 0.02 | 0.78 ± 0.02 | 0.02 ± 0.02 | 17800 |  |  | 
2 | COC[C@]12CC[C@@H](O)CC1=CC[C@@H]1[C@@H]2CC[C@]2(C)[C@@H](OC)CC[C@@H]12 [25, MQ-101, (3α,17β)-17,19-Dimethoxyandrost-5-en-3-ol] |  |  | 0.94 ± 0.07 | 1.97 ± 0.08 | 15.7 ± 0.90 | 0.08 ± 0.07 | 583 ± 71 |  |  | 
3 | COC[C@]12CC[C@@H](O)C[C@@H]1CC[C@H]1[C@@H]3CC[C@H](C#N)[C@@]3(C)CC[C@@H]12 [16, MQ-92, (3α,5α,17β)-3-Hydroxy-19-methoxyandrostane-17-carbonitrile] |  |  | 1.52 ± 0.02 | 9.79 ± 0.53 | 25.7 ± 2.11 | 0.25 ± 0.11 | 63 ± 7 | B (B 10-20 min) | B (B 10-20 min) | 
4 | COC[C@]12CC[C@@H](O)C[C@@H]1CC[C@@H]1[C@@H]2CC[C@@]2(C)[C@H]1CC[C@@]21CO1 [12, MQ-90, (3α,5α,17β)-19-Methoxyspiro[androstane-17,2′-oxiran]-3-ol] |  |  | 1.24 ± 0.05 | 7.40 ± 1.43 | 18.7 ± 6.19 | 0.14 ± 0.04 | 79 ± 4 |  |  | 
5 | COC[C@]12CCC(=O)C=C1CC[C@@H]1[C@@H]2CC[C@]2(C)[C@@H](OC)CC[C@@H]12 [24, MQ-99, (17β)-17,19-Dimethoxyandrost-4-en-3-one] | None | None | 0.88 ± 0.08 | 0.63 ± 0.06 | 1.06 ± 0.17 | 0.11 ± 0.17 | 14500 |  |  | 
6 | COC[C@]12CC[C@@H](O)C[C@@H]1CC[C@H]1[C@@H]3CC[C@H](C(=O)CO)[C@@]3(C)CC[C@@H]12 [20, MQ-98, (3α,5α)-3,21-Dihydroxy-19-methoxypregnan-20-one] |  |  | 0.98 ± 0.01 | 2.76 ± 0.27 | 19.0 ± 2.31 | 0.09 ± 0.05 | 345 ± 61 |  |  | A (A <10 min)
7 | COC[C@]12CC[C@H](O)C[C@@H]1CC[C@H]1[C@@H]3CC[C@H](OC)[C@@]3(C)CC[C@@H]12 [31, MQ-96, (3β,5α,17β)-17,19-Dimethoxyandrostan-3-ol] |  |  | 0.91 ± 0.02 | 0.97 ± 0.05 | 1.10 ± 0.05 | 0.02 ± 0 | 7800 |  |  | 
8 | COC[C@]12CC[C@@H](O)C[C@@H]1CC[C@H]1[C@@H]3CC[C@H](OC)[C@@]3(C)CC[C@@H]12 [8, MQ-89, (5α,17β)-17,19-Dimethoxyandrostan-3-ol] |  |  | 1.65 ± 0.08 | 7.63 ± 0.77 | 20.9 ± 2.73 | 0.22 ± 0.01 | 56 ± 2 |  | C (C >20 min) | C (C >20 min)
9 | COC[C@]12CC[C@@H](O)C[C@@H]1CC[C@H]1[C@@H]3CC[C@H]([N+](=O)[O-])[C@@]3(C)CC[C@@H]12 [29, MQ-97, (3α,5α,17β)-19-methoxy-17-nitroandrostan-3-ol] |  |  | 2.07 ± 0.09 | 15.7 ± 1.45 | 26.6 ± 4.34 | 0.11 ± 0.01 | 37 ± 4 |  | C (C >20 min) | B (B 10-20 min)
10 | COC[C@]12CC[C@@H](O)C[C@@H]1CC[C@H]1[C@@H]3CC[C@H](C(C)=O)[C@@]3(C)CC[C@@H]12 [17, MQ-93, (3α,5α)-3-Hydroxy-19-methoxypregnan-20-one] |  |  | 2.15 ± 0.19 | 12.8 ± 1.74 | 33.8 ± 5.44 | 0.23 ± 0.07 | 47 ± 4 |  |  | C (C >20 min)
11 | COC[C@]12CCC(O)CC1CC[C@@H]1[C@@H]2CC[C@]2(C)C(=O)CC[C@@H]12 (stereo in doubt) [30, MQ-94, (3α,5β)-3-Hydroxy-19-methoxyandrostan-17-one] |  | None | 0.90 ± 0.02 | 0.88 ± 0.01 | 0.84 ± 0.02 | 0.03 | > 30000 |  |  | 
12 | COC[C@]12CC[C@@H](O)C[C@@H]1CC[C@@H]1[C@@H]2CC[C@]2(C)C(C#N)=CC[C@@H]12 [15, MQ-91, (3α,5α)-3-Hydroxy-19-methoxyandrost-16-ene-17-carbonitrile] |  |  | 1.27 ± 0.13 | 5.34 ± 0.86 | 25.6 ± 3.23 | 0.10 ± 0.09 | 118 ± 13 |  |  | 
13 | COC[C@]12CCC(=O)C[C@@H]1CC[C@H]1[C@@H]3CC[C@H](OC)[C@@]3(C)CC[C@@H]12 [7, MQ-88, (5α,17β)-17,19-Dimethoxyandrostan-3-one] |  |  | 1.00 ± 0 | 0.85 ± 0.01 | 1.07 ± 0.02 | 0.04 ± 0.03 | 8700 |  |  | 
